Experimental data published in US7767685B2, “Adenosine A2B receptor antagonists” (King Pharmaceuticals Research and Development, Inc., priority 2006, dated 2010).
pKi: −log10 of the molar value.

Molecular target: T1, human A3 adenosine receptors (Homo sapiens, UniProt P0DMS8)
T1 construct: expressed in transfected cells; host or cells: CHO cells (membranes)
T1 sequence (P0DMS8 1-318): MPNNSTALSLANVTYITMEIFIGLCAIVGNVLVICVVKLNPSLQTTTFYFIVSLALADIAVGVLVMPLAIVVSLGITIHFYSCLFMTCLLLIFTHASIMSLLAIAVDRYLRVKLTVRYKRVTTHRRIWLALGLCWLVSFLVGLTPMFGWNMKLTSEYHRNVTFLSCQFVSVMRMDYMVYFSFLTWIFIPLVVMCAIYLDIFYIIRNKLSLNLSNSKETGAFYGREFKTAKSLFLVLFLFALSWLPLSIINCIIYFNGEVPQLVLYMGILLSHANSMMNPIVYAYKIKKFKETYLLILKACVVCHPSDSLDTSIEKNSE
Experiment: Displacement of [3H]MRE3008F20 binding at human A3 adenosine receptors expressed in CHO cells
Conditions: [3H]MRE3008F20 displacement, n = 3-6 (footnote mark c/d swapped), geometric mean (95% confidence limits), read-out: Ki hA3
Method: The human adenosine receptors have been transfected in CHO cells according with the method previously described by Klotz et al. (Naunyn-Schmied. Arch Pharm. 1998, 357: 1-9). Briefly, the cells are grown adherently and maintained in Dulbecco's Modified Eagles Medium with nutrient mixture F12 (DMEM/F12) without nucleosides, containing 10% fetal calf serum, penicillin (100 U/mL), streptomycin (100 μg/mL), L-glutamine (2 mM) and Geneticin (G418, 0.2 mg/ml) at 37° C. in 5% CO2/95% air. For membrane preparation the culture medium is removed and the cells are washed with phosphate-buffered saline and scraped off T75 flasks in ice-cold hypo tonic buffer (5 mM Tris HCl, 1 mM EDTA, pH 7.4). […]
All new synthesized compounds have been tested to evaluate their affinity to human A1, A2A, A2B and A3 adenosine receptors. […] Non-specific binding is determined in the presence of 10 μM of CHA and this is always ≦10% of the total binding. […] Non-specific binding is determined in the presence of 1 μM ZM 241385 and is about 20% of total binding. […] Bound and free radioactivity are separated by filtering the assay mixture through Whatman GF/B glass fiber filters using a Micro-Mate 196 cell harvester (Packard Instrument Co.). The filter bound radioactivity is counted on a Top Count (efficiency 57%) with Micro-Scint 20. […]

Structure (SMILES): CCCn1c(=O)c2[nH]c(-c3cc(C)n(CC(=O)Nc4ccc(C(C)CC)cc4)n3)nc2n(CCC)c1=O (stereo not shown) [Example 12, 2-[3-(2,6-Dioxo-1,3-dipropyl-2,3,6,7-tetrahydro-1H-purin-8-yl)-5-methyl-pyrazol-1-yl]-N-(4-sec-butylphenyl)-acetamide]
- pKi: < 6.00
